Some test systems named below: EKVX NSCLC; KM12 colon; UACC-62 melanoma; SK-MEL-2 melanoma; SK-MEL-5 melanoma; 786-0 renal; HCT-116 colon; UO-31 renal; MCF7 breast.
Holding throughout (test): NCI-60 cell line screen, 48 h

≈ marks a conversion by molar mass, not a printed value.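 Values below derive from 48-hour exposures of cells grown in 96-well plates, with endpoints linearly interpolated between the two concentrations bracketing the appropriate inhibition level. GI50: concentration for 50% inhibition of growth. TGI is the concentration that stops growth completely.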

Consider `CC1=CCC2(C#N)CCC1C2=O` (stereo not given), for which the TGI in the experiment on EKVX NSCLC, in the experiment with KM12 colon, with UACC-62 melanoma, in the experiment with SK-MEL-2 melanoma, with SK-MEL-5 melanoma and in the experiment on 786-0 renal was greater than 100 µM each time. The TGI with HCT-116 colon and in the experiment on UO-31 renal was greater than 100 µM throughout.

For `CC(C)OCN1COCN=C1NC#N`, the TGI in the experiment with EKVX NSCLC, in the experiment on KM12 colon, in the experiment with UACC-62 melanoma, in the experiment on SK-MEL-2 melanoma, in the experiment on SK-MEL-5 melanoma and in the experiment on 786-0 renal was greater than 100 µM throughout. The TGI in the experiment with HCT-116 colon and in the experiment with UO-31 renal was greater than 100 µM each time.

With `COc1ccc(C(=O)C(C(=O)C(=O)Nc2nc3ccc(OC)cc3s2)c2ccc(OC)cc2)cc1` (stereo not given), the TGI in the experiment with EKVX NSCLC, in the experiment with KM12 colon, in the experiment with UACC-62 melanoma, in the experiment on SK-MEL-2 melanoma, with SK-MEL-5 melanoma and with 786-0 renal was greater than 100 µM each time. In addition, the TGI with UO-31 renal is greater than 100 µM.

Regarding `Cc1ccccc1NC(=O)C(=O)Cc1nc2ccccc2s1`, the TGI with KM12 colon, in the experiment with SK-MEL-2 melanoma, in the experiment with SK-MEL-5 melanoma, with 786-0 renal, in the experiment with HCT-116 colon and with UO-31 renal was greater than 100 µM throughout.

In the case of `Nc1nc(N)c(-c2ccccc2)c(C(=O)Nc2ccc(Cl)c(Cl)c2)n1`, the TGI with EKVX NSCLC, in the experiment with KM12 colon, with UACC-62 melanoma, in the experiment on SK-MEL-2 melanoma, in the experiment with SK-MEL-5 melanoma and in the experiment with 786-0 renal was greater than 100 µM throughout. The TGI with HCT-116 colon and in the experiment with UO-31 renal was greater than 100 µM throughout.

For `O=C(O)/C(O)=C1/C=C(c2ccccc2)c2ccccc21`, the TGI in the experiment with KM12 colon is 32.4 µM; in the experiment on UACC-62 melanoma, 30 µM; with SK-MEL-2 melanoma it was 33.1 µM; in the experiment on SK-MEL-5 melanoma, 34 µM; in the experiment with 786-0 renal, 78 µM; in the experiment with HCT-116 colon it was 37.6 µM. The same molecule displayed a TGI with UO-31 renal of 41.6 µM.

On to `C=C(CO)CC(O)c1ccccc1` (stereo not given), for which the TGI in the experiment on EKVX NSCLC, in the experiment on KM12 colon, in the experiment with UACC-62 melanoma, in the experiment on SK-MEL-2 melanoma, with SK-MEL-5 melanoma and in the experiment with 786-0 renal was greater than 100 µM each time. The TGI with HCT-116 colon and with UO-31 renal was greater than 100 µM each time.

As for `CC1CC2C3CC(F)C4=CC(=O)C=CC4(C)C3(F)C(O)CC2(C)C1(O)C(=O)CO` (stereo not given), the TGI in the experiment with EKVX NSCLC, in the experiment with KM12 colon, in the experiment with UACC-62 melanoma, in the experiment with SK-MEL-2 melanoma, in the experiment with SK-MEL-5 melanoma and with 786-0 renal was greater than 100 µM throughout. In addition, the TGI in the experiment on HCT-116 colon and in the experiment with UO-31 renal was greater than 100 µM in each case.

For the molecule `COc1cc(C2C(C(=O)O)=C(C)Oc3cc4c(cc32)OCO4)cc(OC)c1OC` (stereo not given), the TGI in the experiment on EKVX NSCLC, with UACC-62 melanoma, with SK-MEL-5 melanoma, in the experiment with 786-0 renal, in the experiment on HCT-116 colon and with UO-31 renal was greater than 100 µM each time.

Regarding `CSc1s[s+]c(SC)c1[O-]`, the TGI with EKVX NSCLC was greater than 100 µM; in the experiment with KM12 colon, greater than 100 µM; with UACC-62 melanoma, 28.2 µM; in the experiment with SK-MEL-2 melanoma it was greater than 100 µM; in the experiment with SK-MEL-5 melanoma, greater than 100 µM; in the experiment on 786-0 renal, 30.3 µM. Moreover, the TGI with HCT-116 colon is 36.8 µM; with UO-31 renal, greater than 100 µM.

For the molecule `Cc1cccc(NC(=O)CC2C(=O)Nc3ccccc3S2(=O)=O)c1C` (stereo not given), the TGI in the experiment with EKVX NSCLC was greater than 100 µM; in the experiment on KM12 colon it was greater than 100 µM; in the experiment on UACC-62 melanoma, 46.3 µM; in the experiment on SK-MEL-2 melanoma it was 75.4 µM; with SK-MEL-5 melanoma it was 74.1 µM; in the experiment on 786-0 renal, 76.1 µM. Besides, the values for the TGI in the experiment on HCT-116 colon and with UO-31 renal were 33.1 µM and 50.5 µM, respectively.

With `COCCN1C2=CCCCC2=Nc2c(N)nc(N)nc21`, the TGI in the experiment with KM12 colon, in the experiment with UACC-62 melanoma, in the experiment on SK-MEL-2 melanoma, with SK-MEL-5 melanoma, with 786-0 renal and in the experiment with HCT-116 colon was greater than 100 µM each time. Besides, in the experiment on UO-31 renal, the TGI was greater than 100 µM.

As to `COC(=O)C1CCc2c(OC)ccc(OC)c2C1=O` (stereo not given), the TGI in the experiment with EKVX NSCLC, with KM12 colon, with UACC-62 melanoma, in the experiment with SK-MEL-2 melanoma, with SK-MEL-5 melanoma and in the experiment on 786-0 renal was greater than 100 µM throughout. The TGI with HCT-116 colon and with UO-31 renal was greater than 100 µM throughout.

In the case of `CNC(=O)OCc1nc(S(C)=O)n(C)c1COC(=O)NC` (stereo not given), the TGI in the experiment with MCF7 breast is greater than 100 µM; in the experiment with EKVX NSCLC it was greater than 100 µM; with KM12 colon it was greater than 100 µM; with UACC-62 melanoma, greater than 65.9 µM; in the experiment on SK-MEL-2 melanoma, greater than 100 µM; with SK-MEL-5 melanoma it was greater than 46.4 µM. Also, the TGI in the experiment with 786-0 renal, in the experiment on HCT-116 colon and with UO-31 renal was greater than 100 µM throughout.

Consider `CCCCCCCCCCCCCCCCCC(=O)NCCCNCCCNC(=O)CCCCCCCCCCCCCCCCC`, for which the TGI in the experiment on UACC-62 melanoma, in the experiment with SK-MEL-5 melanoma, in the experiment on 786-0 renal, with HCT-116 colon and with UO-31 renal was greater than 100 µM in each case.

Consider `CN/N=C(\C)CC(=O)Nc1cccc(Cl)c1C`, for which the TGI in the experiment on EKVX NSCLC, in the experiment with KM12 colon, in the experiment on UACC-62 melanoma, in the experiment with SK-MEL-2 melanoma, in the experiment with SK-MEL-5 melanoma and with 786-0 renal was greater than 100 µM each time. Also, the TGI in the experiment on HCT-116 colon and with UO-31 renal was greater than 100 µM each time.

With `NC1=C(c2nc(-c3cc4ccccc4oc3=O)cs2)C(c2ccco2)c2c(c3ccccc3oc2=O)O1` (stereo not given), the GI50 in the experiment on MCF7 breast was greater than 150 mg/L; in the experiment on EKVX NSCLC it was 69.7 mg/L (≈ 137 µM); in the experiment on KM12 colon it was greater than 150 mg/L; in the experiment with UACC-62 melanoma, 112 mg/L (≈ 220 µM); in the experiment with SK-MEL-2 melanoma, 43.6 mg/L (≈ 85.8 µM); with SK-MEL-5 melanoma, greater than 150 mg/L. The results for the GI50 with 786-0 renal and with HCT-116 colon were 20.2 mg/L (≈ 39.8 µM) and greater than 150 mg/L, respectively. The TGI is greater than 150 mg/L in the experiment with MCF7 breast; greater than 150 mg/L in the experiment on EKVX NSCLC; greater than 150 mg/L with KM12 colon; greater than 150 mg/L in the experiment on UACC-62 melanoma; 112 mg/L in the experiment on SK-MEL-2 melanoma; greater than 150 mg/L in the experiment on SK-MEL-5 melanoma. Besides, the results for the TGI with 786-0 renal and with HCT-116 colon were 71.3 mg/L and greater than 150 mg/L, respectively.

The values are drawn from PubChem BioAssay (NCI).
